According to patent US20260224589A1 (priority 2023, published 2026):
Read-outs that look alike come from different tables or passages of the source.

System: AsPC-1 cells
Experiment: phospho-ERK HTRF assay in AsPC-1 cells, 4 h treatment
Assay type: cell-based
[1] = Homo sapiens, ASPC1, AsPC-1, 4h, Table 1b, read-out: PERK IC50 (AsPC-1, 4h)
[2] = Homo sapiens, ASPC1, AsPC-1, 4H, Table 1a class column, read-out: pERK IC50 activity range (*)
[3] = Homo sapiens, ASPC1, AsPC-1, 4H, Table 1a, read-out: PERK IC50 (AsPC-1, 4H)

Row | Structure (SMILES) | IC50 [1] [nM] | IC50 [2] [nM] | IC50 [3] [nM] | further results
1 | CC#Cc1cc(N)cc([C@@H]2Cc3nc(OC[C@@]45CCCN4C/C(=C\F)C5)nc(N4CCCn5nc(C(=O)N6CCCC6)c(C)c5C4)c3CO2)c1C(F)(F)F [compound 429] | < 10 | – | – | –
2 | CCc1c(C(=O)N(C)C)nn2c1CN(c1nc(OC[C@@]34CCCN3C[C@H](F)C4)nc3c1CO[C@H](c1cc(N)cc(Cl)c1C(F)(F)F)C3)CCC2 [compound 409] | – | 10 to 30 | – | –
3 | CC#Cc1cc(N)c(F)c([C@@H]2Cc3nc(OC[C@@]45CCCN4C[C@H](F)C5)nc(N4CCCn5nc(C(=O)N(C)C)c(C)c5C4)c3CO2)c1C(F)(F)F [compound 444] | < 10 | – | – | –
4 | CON(C)C(=O)c1nn2c(c1Cl)CN(c1nc(OC[C@]34CCCN3C[C@@H](C=C(F)F)C4)nc3c1COC(c1cc(N)cc(Cl)c1C(F)(F)F)C3)CCC2 (stereo partly shown) [compound 451] | – | 10 to 30 | – | –
5 | CN(C)C(=O)c1nn2c(c1Cl)CN(c1nc(OC[C@]34CCCN3C[C@@H](C=C(F)F)C4)nc3c1COC(c1c(F)c(N)cc(Cl)c1C(F)(F)F)C3)CCC2 (stereo partly shown) [compound 460] | < 10 | – | – | –
6 | Cc1c(C(=O)N(C)C)nn2c1CN(c1nc(OC[C@@]34CCCN3C/C(=C\F)C4)nc3c1CO[C@H](c1c(F)c(N)cc(Cl)c1Cl)C3)CCC2 [compound 442] | < 10 | – | – | –
7 | CN(C)C(=O)c1nn2c(c1Cl)CN(c1nc(OC[C@@]34CCCN3C[C@H](F)C4)nc3c1CO[C@H](c1cc(N)cc(F)c1C(F)(F)F)C3)CCC2 [compound 402] | – | 10 to 30 | – | –
8 | CN(C)C(=O)c1nn2c(c1Cl)CN(c1nc(OC[C@@]34CCCN3C[C@H](F)C4)nc3c1CO[C@@H](c1c(C(F)(F)F)cc(F)c(N)c1F)C3)CCC2 [216b] | – | > 500 | > 10000 | –
9 | CCN(C)C(=O)c1cc2n(n1)CCCN(c1nc(OC[C@@]34CCCN3C/C(=C\F)C4)nc3c1CO[C@H](c1cc(N)cc(C)c1C(F)(F)F)C3)C2 [compound 413] | < 10 | – | – | –
10 | CC#Cc1cc(N)cc([C@@H]2Cc3nc(OC[C@@]45CCCN4C/C(=C\F)C5)nc(N4CCCn5nc(C(=O)N(C)CC)cc5C4)c3CO2)c1C(F)(F)F [compound 428] | < 10 | – | – | –
11 | Cc1cc(N)cc(C2Cc3nc(OC[C@@]45CCCN4C/C(=C\F)C5)nc(N4CCCn5nc(C(=O)N(C)C)c(Cl)c5C4)c3CO2)c1C(F)(F)F (stereo partly shown) [compound 240] | < 10 | – | – | –
12 | CN(C)C(=O)c1nn2c(c1Cl)CN(c1nc(OC[C@]34CCCN3C[C@@H](C=C(F)F)C4)nc3c1CO[C@H](c1cc(N)cc(Cl)c1C(F)(F)F)C3)CCC2 [compound 456] | < 10 | – | – | –
13 | CON(C)C(=O)c1nn2c(c1Cl)CN(c1nc(OC[C@@]34CCCN3C[C@H](F)C4)nc3c1COC(c1cc(N)cc(Cl)c1C(F)(F)F)C3)CCC2 (stereo partly shown) [compound 452] | – | 10 to 30 | – | –
14 | Cn1cc2c(n1)CCCN(c1nc(OC[C@@]34CCCN3C[C@H](F)C4)nc3c1COC(c1c(C(F)(F)F)ccc(N)c1F)C3)C2 (stereo partly shown) [compound 229] | – | > 500 | > 10000 | –
15 | CN(C)C(=O)c1nc2c(s1)CN(c1nc(OC[C@@]34CCCN3C[C@H](F)C4)nc3c1CO[C@H](c1c(C(F)(F)F)ccc(N)c1F)C3)CCC2 [compound 209] | – | 101 to 500 | 479 | –
16 | CC#Cc1cc(N)c(F)c([C@@H]2Cc3nc(OC[C@@]45CCCN4C/C(=C\F)C5)nc(N4CCCn5nc(C(=O)N(C)C)c(Cl)c5C4)c3CO2)c1C(F)(F)F [compound 437] | < 10 | – | – | –
17 | Cc1cc(N)cc([C@@H]2Cc3nc(OC[C@@]45CCCN4C/C(=C\F)C5)nc(N4CCCn5nc(C(=O)N(C)C)cc5C4)c3CO2)c1C(F)(F)F [compound 302, 5-((S)-7-(5-amino-3-methyl-2-(trifluoromethyl)phenyl)-2-(((S,Z)-2-(fluoromethylene)tetrahydro-1H-pyrrolizin-7a(5H)-yl)methoxy)-7,8-dihydro-5H-pyrano[4,3-d]pyrimidin-4-yl)-N,N-dimethyl-5,6,7,8-tetrahydro-4H-pyrazolo[1,5-a][1,4]diazepine-2-carboxamide] | < 10 | – | – | –
18 | CN(C)C(=O)c1cc2n(n1)CCCN(c1nc(OC[C@@]34CCCN3C/C(=C\F)C4)nc3c1CO[C@H](c1cc(N)cc(Cl)c1C(F)(F)F)C3)C2 [compound 301, 5-((S)-7-(5-amino-3-chloro-2-(trifluoromethyl)phenyl)-2-(((S,Z)-2-(fluoromethylene)tetrahydro-1H-pyrrolizin-7a(5H)-yl)methoxy)-7,8-dihydro-5H-pyrano[4,3-d]pyrimidin-4-yl)-N,N-dimethyl-5,6,7,8-tetrahydro-4H-pyrazolo[1,5-a][1,4]diazepine-2-carboxamide] | < 10 | – | – | –
19 | CN(C)C(=O)c1nn2c(c1F)CN(c1nc(OC[C@@]34CCCN3C/C(=C\F)C4)nc3c1CO[C@H](c1cc(N)cc(Cl)c1C(F)(F)F)C3)CCC2 [compound 412] | < 10 | – | – | –
20 | CN(C)C(=O)c1nn2c(c1Cl)CN(c1nc(OC[C@@]34CCCN3C[C@H](F)C4)nc3c1CO[C@H](c1c(C(F)(F)F)ccc(Br)c1F)C3)CCC2 [compound 220] | – | > 500 | 1040 | –

Row | Structure (SMILES) | IC50 [1] [nM] | IC50 [2] [nM] | IC50 [3] [nM] | further results
21 | Cc1cc(N)cc([C@@H]2Cc3nc(OC[C@@]45CCCN4C[C@H](F)C5)nc(N4CCCn5nc(C(=O)N(C)C)c(C)c5C4)c3CO2)c1C(F)(F)F [compound 405] | – | 10 to 30 | – | –
22 | Cc1cc(N)cc([C@@H]2Cc3nc(OC[C@@]45CCCN4C/C(=C\F)C5)nc(N4CCCn5nc(C(=O)N(C)C)c(C)c5C4)c3CO2)c1C(F)(F)F [compound 415] | < 10 | – | – | –
23 | CN(C)C(=O)c1nn2c(c1Cl)CN(c1nc(OC[C@@]34CCCN3C/C(=C\F)C4)nc3c1CO[C@H](c1c(F)c(N)cc(Cl)c1C(F)(F)F)C3)CCC2 [247a, 5-((S)-7-(3-amino-5-chloro-2-fluoro-6-(trifluoromethyl)phenyl)-2-(((S,Z)-2-(fluoromethylene)tetrahydro-1H-pyrrolizin-7a(5H)-yl)methoxy)-7,8-dihydro-5H-pyrano[4,3-d]pyrimidin-4-yl)-3-chloro-N,N-dimethyl-5,6,7,8-tetrahydro-4H-pyrazolo[1,5-a][1,4]diazepine-2-carboxamide] | < 10 | – | – | –
24 | CN(C)C(=O)c1nn2c(c1Cl)CN(c1nc(OC[C@@]34CCCN3C/C(=C\F)C4)nc3c1COC(c1cc(N)cc(Cl)c1C1CC1)C3)CCC2 (stereo partly shown) [compound 438] | < 10 | – | – | –
25 | Nc1ccc(C(F)(F)F)c(C2Cc3nc(OC[C@@]45CCCN4C[C@H](F)C5)nc(N4CCCn5nc(C(=O)N6CCOCC6)c(Cl)c5C4)c3CO2)c1F (stereo partly shown) [compound 227] | – | 31 to 100 | 97 | –
26 | Nc1ccc(C(F)(F)F)c(C2Cc3nc(OC[C@@]45CCCN4C[C@H](F)C5)nc(N4CCNCC(=O)C4)c3CO2)c1F (stereo partly shown) [compound 210] | – | – | – | IC50 (AsPC-1, 4H, Table 1a class column, read-out: pERK IC50 activity range (*)): > 500 nM; IC50 (AsPC-1, 4H, Table 1a, read-out: PERK IC50 (AsPC-1, 4H)): > 10000 nM
27 | CN(C)C(=O)c1nn2c(c1Cl)CN(c1nc(OC[C@@]34CCCN3C/C(=C\F)C4)nc3c1COC(c1cc(N)cc(Cl)c1C(F)(F)F)C3)CCC2 (stereo partly shown) [compound 242] | < 10 | – | – | –
28 | CS(=O)(=O)c1nn2c(c1Cl)CN(c1nc(OC[C@@]34CCCN3C[C@H](F)C4)nc3c1CO[C@H](c1c(C(F)(F)F)ccc(N)c1F)C3)CCC2 [211a, 3-((S)-4-(3-Chloro-2-(methylsulfonyl)-7,8-dihydro-4H-pyrazolo[1,5-a][1,4]diazepin-5(6H)-yl)-2-(((2R,7aS)-2-fluorotetrahydro-1H-pyrrolizin-7a(5H)-yl)methoxy)-7,8-dihydro-5H-pyrano[4,3-d]pyrimidin-7-yl)-2-fluoro-4-(trifluoromethyl)aniline] | – | 101 to 500 | 126 | –
29 | CCN(C)C(=O)c1nn2c(c1Cl)CN(c1nc(OC[C@@]34CCCN3C/C(=C\F)C4)nc3c1CO[C@H](c1c(F)c(N)cc(Cl)c1C(F)(F)F)C3)CCC2 [compound 432] | < 10 | – | – | –
30 | Cc1cc(N)c(F)c([C@H]2Cc3nc(OC[C@@]45CCCN4C[C@H](F)C5)nc(N4CCCn5nc(C(=O)N(C)C)c(Cl)c5C4)c3CO2)c1C(F)(F)F [215b] | – | 101 to 500 | 132 | –
31 | CC#Cc1cc(N)cc([C@@H]2Cc3nc(OC[C@@]45CCCN4C[C@H](F)C5)nc(N4CCCn5nc(C(=O)N(C)C)c(C)c5C4)c3CO2)c1C(F)(F)F [compound 419] | < 10 | – | – | –
32 | Nc1ccc(C(F)(F)F)c(C2Cc3nc(OC[C@@]45CCCN4C[C@H](F)C5)nc(N4CCNCC(=O)C4)c3CO2)c1F (stereo partly shown) [compound 203] | – | > 500 | > 10000 | –
33 | CN(C)C(=O)c1nn2c(c1Cl)CN(c1nc(OC[C@@]34CCCN3C[C@H](F)C4)nc3c1COC(c1nc(N)ccc1C(F)(F)F)C3)CCC2 (stereo partly drawn) [compound 217, 5-(7-(6-amino-3-(trifluoromethyl)pyridin-2-yl)-2-(((2R,7aS)-2-fluorotetrahydro-1H-pyrrolizin-7a(5H)-yl)methoxy)-7,8-dihydro-5H-pyrano[4,3-d]pyrimidin-4-yl)-3-chloro-N,N-dimethyl-5,6,7,8-tetrahydro-4H-pyrazolo[1,5-a][1,4]diazepine-2-carboxamide] | – | 101 to 500 | 312 | –
34 | Cc1c(C(=O)N(C)C)nn2c1CN(c1nc(OC[C@]34CCCN3C[C@@H](C=C(F)F)C4)nc3c1CO[C@H](c1cc(N)cc(Cl)c1C(F)(F)F)C3)CCC2 [compound 447] | < 10 | – | – | –
35 | CON(C)C(=O)c1nn2c(c1Cl)CN(c1nc(OC[C@@]34CCCN3C/C(=C\F)C4)nc3c1COC(c1c(F)c(N)cc(Cl)c1C(F)(F)F)C3)CCC2 (stereo partly shown) [compound 463] | – | 10 to 30 | – | –
36 | Cc1cc(N)cc([C@@H]2Cc3nc(OC[C@@]45CCCN4CC(=C(F)F)C5)nc(N4CCCn5nc(C(=O)N(C)C)c(C)c5C4)c3CO2)c1C(F)(F)F [compound 416] | < 10 | – | – | –
37 | CN(C)C(=O)c1nc2c(s1)CCCN(c1nc(OC[C@@]34CCCN3C[C@H](F)C4)nc3c1CO[C@H](c1c(C(F)(F)F)ccc(N)c1F)C3)C2 [compound 202] | – | > 500 | > 10000 | –
38 | CN(C)C(=O)c1nn2c(c1Br)CN(c1nc(OC[C@@]34CCCN3C[C@H](F)C4)nc3c1CO[C@H](c1c(C(F)(F)F)ccc(N)c1F)C3)CCC2 [compound 224] | – | 10 to 30 | 22 | –
39 | CN(C)C(=O)c1nn2c(c1Cl)CN(c1nc(OC[C@@]34CCCN3CC(=C(F)F)C4)nc3c1COC(c1cc(N)cc(F)c1C(F)(F)F)C3)CCC2 (stereo partly shown) [compound 238] | – | 10 to 30 | 29.3 | –
